According to ChEMBL document CHEMBL5356993, “Novel pyrazolo[3,4-d]pyrimidine derivatives: design, synthesis, anticancer evaluation, VEGFR-2 inhibition, and antiangiogenic activity” (RSC Med Chem, 2023):

Key:
[1] = system: MDA-MB-468; assay: Induction of apoptosis in human MDA-MB-468 cells assessed as increase in caspase-3 level incubated for 2 hrs by ELISA (reference value: 2.109 ng/ml); assay type: functional
[2] = system: MDA-MB-468; assay: Induction of cell cycle arrest in human MDA-MB-468 cells assessed as accumulation of cells at S phase at IC50 incubated for 24 hrs by RNase/PI staining based flow cytometry (reference value: 24.85 %); assay type: functional
[3] = system: MDA-MB-468; assay: Induction of apoptosis in human MDA-MB-468 cells assessed as necrotic cells at IC50 incubated for 24 hrs by Annexin V/PI staining based flow cytometry (reference value: 1.59 %); assay type: functional
[4] = system: MDA-MB-468; assay: Induction of cell cycle arrest in human MDA-MB-468 cells assessed as decrease in cell population at G2/M phase at IC50 incubated for 24 hrs by RNase/PI staining based flow cytometry relative to control; assay type: functional; design: scale not given: the % may be the effect or the level left
[5] = system: MDA-MB-468; assay: Induction of apoptosis in human MDA-MB-468 cells assessed as late apoptotic cells at IC50 incubated for 24 hrs by Annexin V/PI staining based flow cytometry (reference value: 0.17 %); assay type: functional
[6] = system: MDA-MB-468; assay: Induction of cell cycle arrest in human MDA-MB-468 cells assessed as accumulation of cells at G0 to G1 phase at IC50 incubated for 24 hrs by RNase/PI staining based flow cytometry (reference value: 59.02 %); assay type: functional
[7] = system: MDA-MB-468; assay: Induction of apoptosis in human MDA-MB-468 cells assessed as fold increase in total apoptotic cells at IC50 incubated for 24 hrs by Annexin V/PI staining based flow cytometry relative to control; assay type: functional
[8] = system: HUVEC; assay: Antiangiogenic activity against HUVEC cells assessed as decrease in healing rate at IC50 incubated for 72 hrs by wound healing assay relative to control; assay type: functional, Homo sapiens; design: scale not given: the % may be the effect or the level left
[9] = system: HUVEC; assay: Antiangiogenic activity against HUVEC cells assessed as wound closure at IC50 incubated for 72 hrs by wound healing assay (reference value: 98.518 %); assay type: functional, Homo sapiens
[10] = system: MDA-MB-468; assay: Induction of cell cycle arrest in human MDA-MB-468 cells assessed as fold increase in cell population at S phase at IC50 incubated for 24 hrs by RNase/PI staining based flow cytometry relative to control; assay type: functional
[11] = system: MDA-MB-468; assay: Induction of apoptosis in human MDA-MB-468 cells assessed as fold increase in caspase-3 level incubated for 2 hrs by ELISA relative to control; assay type: functional
[12] = system: MDA-MB-468; assay: Induction of apoptosis in human MDA-MB-468 cells assessed as total apoptotic cells at IC50 incubated for 24 hrs by Annexin V/PI staining based flow cytometry (reference value: 2.28 %); assay type: functional

In the case of `Cc1nc2c(cnn2-c2ccccc2)c(=O)n1-c1ccc(NC(=O)c2ccc(F)cc2)cc1`, the Activity [1] is reported as 15.44 ng/mL, the Activity [2] is reported as 38.02% and the Activity [3] is reported as 4.94%. For the same compound, the Activity [4] was 43.46%, the Activity [5] was 22.49% and the Activity [6] was 52.86%. The “fold change (FC)” value [7] was 18.98, the Activity [8] was 23% and the Activity [9] was 75.555%. The “fold change (FC)” value [10] was 1.53, the “fold change (FC)” value [11] was 7.32 and the Activity [12] was 43.28%.
